{"source": "paper PMC8597046", "about": "“Use of Mixture Dosing and Nonlinear Mixed Effect Modeling of Eight Environmental Contaminants in Rabbits to Improve Extrapolation Value of Toxicokinetic Data” (Environmental Health Perspectives, 2021)", "key": {"[1]": {"assay": "TK assay, oral mixture dosing: serum concentrations and noncompartmental analysis (sparse data)", "details": "female, rabbit, in vivo, po", "procedure,_shortened": "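Female New Zealand white rabbits (10-wk, 2.37±0.14kg) got the compound mixture IV via ear-vein catheter or orally into the mouth; serum sampled 15 min to 28 d, 3 (or 6 at 30 min) rabbits per time. Sparse-data noncompartmental analysis gave AUC (linear trapezoidal), CL or CL_F, half-life and F.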"}, "[2]": {"assay": "Chronic exposure: daily oral mixture for 17 wk, steady-state serum concentrations", "details": "female, New Zealand white (INRA 1777 line), rabbit, in vivo, po", "procedure,_shortened": "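Female New Zealand white rabbits (INRA 1777 line, 2 wk old, n=16 treated, 16 vehicle controls) received an oral eight-compound mixture: loading plus maintenance dose, then daily maintenance dose for 17 wk. Dosing volume 1mL/kg adjusted weekly to predicted BW; serum obtained after clotting and centrifugation, stored at −20°C.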"}, "[3]": {"assay": "TK assay, intravenous mixture dosing: serum concentrations and noncompartmental analysis (sparse data)", "details": "female, rabbit, in vivo, iv; for Vd: IV mixture dosing, NCA, n=12", "procedure,_shortened": "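Female New Zealand white rabbits received a compound mixture IV via ear-vein catheter; serum sampled sparsely (3 rabbits/time point) from 15 min to 28 d. Noncompartmental sparse-data analysis on mean profiles: linear-trapezoidal AUC, CL as dose/AUC0−inf, half-life from λZ, MRT and VSS.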"}, "[4]": {"details": "New Zealand white (INRA 1777 line)"}}, "data": [{"smiles": "O=C(O)C(F)(F)C(F)(F)C(F)(F)C(F)(F)C(F)(F)C(F)(F)C(F)(F)F", "note": "[PFOA, perfluorooctanoic acid]", "values": [{"measurement": "AUC(0-inf)", "setting": "[1]; [4]", "result": 169, "unit": "µM·h"}, {"measurement": "CL/F", "setting": "[1]; [4]", "result": 0.0953, "unit": "mL/min/kg"}, {"measurement": "Cmax", "setting": "[1]; [4]", "result": 9070, "unit": "nM"}, {"measurement": "MRT", "setting": "[1]; [4]", "result": 25.9, "unit": "h"}, {"measurement": "Tmax", "setting": "[1]; [4]", "result": 4.05, "unit": "h"}, {"measurement": "Vd/F", "setting": "[1]; [4]", "result": 0.64, "unit": "L/kg"}, {"measurement": "bioavailability", "setting": "[1]; [4]", "result": "> 100", "unit": "%"}, {"measurement": "half-life", "setting": "[1]; [4]", "result": 77.6, "unit": "h"}, {"measurement": "concentration at 4.3 h", "setting": "[1]; New Zealand white (INRA 1777 line), Serum concentration, oral, rabbit 13, 4.30 h, MEHP after oral DEHP", "result": 6040, "unit": "nM"}, {"measurement": "concentration at 24 h", "setting": "[1]; New Zealand white (INRA 1777 line), Serum concentration, oral, rabbit 13, […], MEHP after oral DEHP", "result": 2510, "unit": "nM"}, {"measurement": "concentration at 0.37 h", "setting": "[1]; New Zealand white (INRA 1777 line), Serum concentration, oral, rabbit 14, 0.37 h, MEHP after oral DEHP", "result": 4790, "unit": "nM"}, {"measurement": "concentration at 4.17 h", "setting": "[1]; New Zealand white (INRA 1777 line), Serum concentration, oral, rabbit 14, 4.17 h, MEHP after oral DEHP", "result": 6700, "unit": "nM"}, {"measurement": "concentration at 24 h", "setting": "[1]; New Zealand white (INRA 1777 line), Serum concentration, oral, rabbit 14, […], MEHP after oral DEHP", "result": 1530, "unit": "nM"}, {"measurement": "concentration at 4.05 h", "setting": "[1]; New Zealand white (INRA 1777 line), Serum concentration, oral, rabbit 15, 4.05 h, MEHP after oral DEHP", "result": 9070, "unit": "nM"}, {"measurement": "concentration at 23.98 h", "setting": "[1]; New Zealand white (INRA 1777 line), Serum concentration, oral, rabbit 15, 23.98 h, MEHP after oral DEHP", "result": 2340, "unit": "nM"}, {"measurement": "concentration at 12 h", "setting": "[1]; New Zealand white (INRA 1777 line), Serum concentration, oral, rabbit 21, 12.00 h, MEHP after oral DEHP", "result": 3940, "unit": "nM"}, {"measurement": "concentration at 168 h", "setting": "[1]; New Zealand white (INRA 1777 line), Serum concentration, rabbit 21, 168.00 h", "result": 9.3, "unit": "nM"}, {"measurement": "concentration at 672.02 h", "setting": "[1]; New Zealand white (INRA 1777 line), Serum concentration, rabbit 22, 672.02 h", "result": 0.5, "unit": "nM"}, {"measurement": "concentration at 671.96 h", "setting": "[1]; New Zealand white (INRA 1777 line), Serum concentration, rabbit 23, 671.96 h", "result": 0.26, "unit": "nM"}, {"measurement": "concentration at 672.02 h", "setting": "[1]; New Zealand white (INRA 1777 line), Serum concentration, rabbit 24, 672.02 h", "result": 0.49, "unit": "nM"}, {"measurement": "concentration at 0.55 h", "setting": "[1]; New Zealand white, Serum concentration, oral, rabbit 16, 0.55 h, MEHP after oral DEHP", "result": 2520, "unit": "nM"}, {"measurement": "concentration at 72 h", "setting": "[1]; New Zealand white, Serum concentration, oral, rabbit 16, 72.00 h, MEHP after oral DEHP", "result": 110, "unit": "nM"}, {"measurement": "concentration at 0.53 h", "setting": "[1]; New Zealand white, Serum concentration, oral, rabbit 17, 0.53 h, MEHP after oral DEHP", "result": 2350, "unit": "nM"}, {"measurement": "concentration at 72 h", "setting": "[1]; New Zealand white, Serum concentration, oral, rabbit 17, 72.00 h, MEHP after oral DEHP", "result": 230, "unit": "nM"}, {"measurement": "concentration at 0.55 h", "setting": "[1]; New Zealand white, Serum concentration, oral, rabbit 18, 0.55 h, MEHP after oral DEHP", "result": 4200, "unit": "nM"}, {"measurement": "concentration at 71.96 h", "setting": "[1]; New Zealand white, Serum concentration, oral, rabbit 18, 71.96 h, MEHP after oral DEHP", "result": 78, "unit": "nM"}, {"measurement": "concentration at 12 h", "setting": "[1]; New Zealand white, Serum concentration, oral, rabbit 19, 12.00 h, MEHP after oral DEHP", "result": 4880, "unit": "nM"}, {"measurement": "concentration at 12 h", "setting": "[1]; New Zealand white, Serum concentration, oral, rabbit 20, 12.00 h, MEHP after oral DEHP", "result": 3200, "unit": "nM"}, {"measurement": "concentration at 168.02 h", "setting": "[1]; New Zealand white, Serum concentration, rabbit 19, 168.02 h", "result": 32, "unit": "nM"}, {"measurement": "concentration at 168 h", "setting": "[1]; New Zealand white, Serum concentration, rabbit 20, 168.00 h", "result": 5, "unit": "nM"}, {"measurement": "concentration at 17 wk", "setting": "[2]", "result": "43 ± 9.4", "unit": "ng/mL"}, {"measurement": "AUC(0-inf)", "setting": "[3]; [4]", "result": 27.4, "unit": "µM·h"}, {"measurement": "Cmax", "setting": "[3]; [4]", "result": 2330, "unit": "nM"}, {"measurement": "MRT", "setting": "[3]; [4]", "result": 18.7, "unit": "h"}, {"measurement": "clearance", "setting": "[3]; [4]", "result": 0.121, "unit": "mL/min/kg"}, {"measurement": "half-life", "setting": "[3]; [4]", "result": 31.8, "unit": "h"}, {"measurement": "Vd", "setting": "[3]; New Zealand white (INRA 1777 line), VSS", "result": 0.135, "unit": "L/kg"}, {"measurement": "Vd", "setting": "[3]; New Zealand white (INRA 1777 line), VZ", "result": 0.332, "unit": "L/kg"}, {"measurement": "concentration at 0.3 h", "setting": "[3]; New Zealand white, Serum concentration, rabbit 1, 0.30 h", "result": 1870, "unit": "nM"}, {"measurement": "concentration at 4.38 h", "setting": "[3]; New Zealand white, Serum concentration, rabbit 1, 4.38 h", "result": 1070, "unit": "nM"}, {"measurement": "concentration at 24.03 h", "setting": "[3]; New Zealand white, Serum concentration, rabbit 1, 24.03 h", "result": 240, "unit": "nM"}, {"measurement": "concentration at 0.28 h", "setting": "[3]; New Zealand white, Serum concentration, rabbit 2, 0.28 h", "result": 2100, "unit": "nM"}, {"measurement": "concentration at 4.05 h", "setting": "[3]; New Zealand white, Serum concentration, rabbit 2, 4.05 h", "result": 1020, "unit": "nM"}, {"measurement": "concentration at 24 h", "setting": "[3]; New Zealand white, Serum concentration, rabbit 2, […]", "result": 160, "unit": "nM"}, {"measurement": "concentration at 0.35 h", "setting": "[3]; New Zealand white, Serum concentration, rabbit 3, 0.35 h", "result": 2330, "unit": "nM"}, {"measurement": "concentration at 4.05 h", "setting": "[3]; New Zealand white, Serum concentration, rabbit 3, 4.05 h", "result": 1450, "unit": "nM"}, {"measurement": "concentration at 24 h", "setting": "[3]; New Zealand white, Serum concentration, rabbit 3, […]", "result": 290, "unit": "nM"}, {"measurement": "concentration at 0.62 h", "setting": "[3]; New Zealand white, Serum concentration, rabbit 4, 0.62 h", "result": 1700, "unit": "nM"}, {"measurement": "concentration at 72 h", "setting": "[3]; New Zealand white, Serum concentration, rabbit 4, 72.00 h", "result": 60, "unit": "nM"}, {"measurement": "concentration at 0.75 h", "setting": "[3]; New Zealand white, Serum concentration, rabbit 5, 0.75 h", "result": 1860, "unit": "nM"}, {"measurement": "concentration at 72.03 h", "setting": "[3]; New Zealand white, Serum concentration, rabbit 5, 72.03 h", "result": 34, "unit": "nM"}, {"measurement": "concentration at 0.57 h", "setting": "[3]; New Zealand white, Serum concentration, rabbit 6, 0.57 h", "result": 1670, "unit": "nM"}, {"measurement": "concentration at 71.97 h", "setting": "[3]; New Zealand white, Serum concentration, rabbit 6, 71.97 h", "result": 31, "unit": "nM"}, {"measurement": "concentration at 11.98 h", "setting": "[3]; New Zealand white, Serum concentration, rabbit 7, 11.98 h", "result": 840, "unit": "nM"}, {"measurement": "concentration at 168 h", "setting": "[3]; New Zealand white, Serum concentration, rabbit 7, 168.00 h", "result": 5.3, "unit": "nM"}, {"measurement": "concentration at 12.02 h", "setting": "[3]; New Zealand white, Serum concentration, rabbit 8, 12.02 h", "result": 520, "unit": "nM"}, {"measurement": "concentration at 167.92 h", "setting": "[3]; New Zealand white, Serum concentration, rabbit 8, 167.92 h", "result": 4.3, "unit": "nM"}, {"measurement": "concentration at 11.97 h", "setting": "[3]; New Zealand white, Serum concentration, rabbit 9, 11.97 h", "result": 590, "unit": "nM"}, {"measurement": "concentration at 168 h", "setting": "[3]; New Zealand white, Serum concentration, rabbit 9, 168.00 h", "result": 3, "unit": "nM"}, {"measurement": "concentration at 671.96 h", "setting": "[3]; New Zealand white, Serum concentration, rabbit 10, 671.96 h", "result": "< 0.24", "unit": "nM"}, {"measurement": "concentration at 672 h", "setting": "[3]; New Zealand white, Serum concentration, rabbit 11, 672.00 h", "result": "< 0.24", "unit": "nM"}, {"measurement": "concentration at 671.83 h", "setting": "[3]; New Zealand white, Serum concentration, rabbit 12, 671.83 h", "result": "< 0.24", "unit": "nM"}]}]}
